Where only a bound is given, the exact number is not on record here.

The text below walks through data of US12129237B2, “Substituted diaminocarboxamide and diaminocarbonitrile pyrimidines, compositions thereof, and methods of treatment therewith” (SIGNAL PHARMACEUTICALS, LLC, priority 2011, dated 2024).

The experiment deals with T1, JNK1 (Homo sapiens, UniProt P45983).
T1 construct: purchased Carna Biosciences
T1 sequence (P45983 whole entry): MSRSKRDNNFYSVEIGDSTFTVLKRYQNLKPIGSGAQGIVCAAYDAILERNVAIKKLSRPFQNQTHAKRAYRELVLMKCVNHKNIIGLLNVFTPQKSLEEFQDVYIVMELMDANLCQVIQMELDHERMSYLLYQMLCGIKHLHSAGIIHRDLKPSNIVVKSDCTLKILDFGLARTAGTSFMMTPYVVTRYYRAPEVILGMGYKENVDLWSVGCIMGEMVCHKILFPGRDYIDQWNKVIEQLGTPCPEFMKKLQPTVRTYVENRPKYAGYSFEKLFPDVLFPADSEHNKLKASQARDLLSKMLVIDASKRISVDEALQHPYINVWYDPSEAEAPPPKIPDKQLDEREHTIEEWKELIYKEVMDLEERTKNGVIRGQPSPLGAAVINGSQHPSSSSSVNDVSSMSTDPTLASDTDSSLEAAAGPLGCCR
As to the kind of experiment: JNK1 biochemical assays (one or more of: time resolved fluorescence, Z'-LYTE Cascade, radioactive). To be noted: Table 2; JNK1 IC50 activity level; read-out: Act. Level.
As to `NC(=O)c1cnc(N[C@H]2CCCc3ccccc32)nc1N[C@@H]1CCC[C@H](O)C1` [Example B-75, 4-((1R,3S)-3-hydroxycyclohexylamino)-2-((S)-1,2,3,4-tetrahydronaphthalen-1-ylamino)pyrimidine-5-carboxamid], the IC50 is < 200 nM. For the compound `NC(=O)c1cnc(N[C@@H]2CCc3ncccc3C2)nc1N[C@@H]1CCC[C@H](O)C1` [Example B-76, 4-((1R,3S)-3-hydroxycyclohexylamino)-2-((R)-5,6,7,8-tetrahydroquinolin-6-ylamino)pyrimidine-5-carboxamid], the IC50 was < 200 nM. The same measure for `NC(=O)c1cnc(N[C@H]2CCc3ncccc3C2)nc1N[C@@H]1CCC[C@H](O)C1` [Example B-77, 4-((1R,3S)-3-hydroxycyclohexylamino)-2-((S)-5,6,7,8-tetrahydroquinolin-6-ylamino)pyrimidine-5-carboxamid]: < 200 nM; for `NC(=O)c1cnc(N[C@H]2CCOc3ccccc32)nc1N[C@@H]1CCC[C@H](O)C1` [Example B-78, 2-((S)-chroman-4-ylamino)-4-((1R,3S)-3-hydroxycyclohexylamino)pyrimidine-5-carboxamide]: 800 to 1000 nM; for `NC(=O)c1cnc(N[C@@H]2CCOc3ccccc32)nc1N[C@@H]1CCC[C@H](O)C1` [Example B-79, 2-((R)-chroman-4-ylamino)-4-((1R,3S)-3-hydroxycyclohexylamino)pyrimidine-5-carboxamide]: < 200 nM. The same measure for `CC(C)Nc1nc(N[C@H]2CCc3ncccc3C2)ncc1C(N)=O` [Example B-80, (S)-4-(isopropylamino)-2-(5,6,7,8-tetrahydroquinolin-6-ylamino)pyrimidine-5-carboxamide]: < 200 nM; for `CC(C)Nc1nc(N[C@@H]2CCc3ncccc3C2)ncc1C(N)=O` [Example B-81, (R)-4-(isopropylamino)-2-(5,6,7,8-tetrahydroquinolin-6-ylamino)pyrimidine-5-carboxamide]: 200 to 800 nM. In the case of `CC(C)Nc1nc(N[C@@H]2CCc3ccccc3C2)ncc1C(N)=O` [Example B-83, (R)-4-(isopropylamino)-2-(1,2,3,4-tetrahydronaphthalen-2-ylamino)pyrimidine-5-carboxamide] it was < 200 nM; in that of `NC(=O)c1cnc(N[C@@H]2CCc3ccccc3C2)nc1N[C@@H]1CCC[C@H](O)C1` [Example B-84, 4-((1R,3S)-3-hydroxycyclohexylamino)-2-((R)-1,2,3,4-tetrahydronaphthalen-2-ylamino)pyrimidine-5-carboxamide], < 200 nM. Regarding `NC(=O)c1cnc(N[C@H]2CCc3ccccc3C2)nc1N[C@@H]1CCC[C@H](O)C1` [Example B-85, 4-((1R,3)S-3-hydroxycyclohexylamino)-2-((S)-1,2,3,4-tetrahydronaphthalen-2-ylamino)pyrimidine-5-carboxamide], the IC50 was in the range of 800 to 1000 nM. On to `N#Cc1cnc(NC2CCCCC2)nc1Nc1ccccc1` [Example B-86, 2-(cyclohexylamino)-4-(phenylamino)pyrimidine-5-carbonitrile], for which the IC50 was 1000 to 10000 nM. For `NC(=O)c1cnc(N[C@H]2CCc3cccnc3C2)nc1N[C@@H]1CCC[C@H](O)C1` [Example B-87, 4-((1R,3S)-3-hydroxycyclohexylamino)-2-((S)-5,6,7,8-tetrahydroquinolin-7-ylamino)pyrimidine-5-carboxamide], the IC50 is < 200 nM. As for `NC(=O)c1cnc(N[C@@H]2CCc3cccnc3C2)nc1N[C@@H]1CCC[C@H](O)C1` [Example B-88, 4-((1R,3S)-3-hydroxycyclohexylamino)-2-((R)-5,6,7,8-tetrahydroquinolin-7-ylamino)pyrimidine-5-carboxamide], the IC50 was < 200 nM. In the case of `C[C@@H](Nc1ncc(C(N)=O)c(N[C@@H]2CCC[C@H](O)C2)n1)c1ccc(F)cc1` [Example B-89, 2-((R)-1-(4-fluorophenyl)ethylamino)-4-((1R,3S)-3-hydroxycyclohexylamino)pyrimidine-5-carboxamide], the IC50 is < 200 nM.
